A short description of this data set: activity coefficient (dimensionless); of the first substance listed, at infinite dilution; xn = mol fraction of the nth substance listed. Particulars: 101 kPa, Liquid, Chromatography, x1 = 0.

± gives the expanded uncertainty stated by the source.

As for `CCCCCCCCC` [nonane] + CCCCCCCCCCn1cc[n+](CCCCCCCCCC)c1C.O=S(=O)([N-]S(=O)(=O)C(F)(F)F)C(F)(F)F, the activity coefficient came to 3.31 ± 0.23 (323.1 K), 3.17 ± 0.22 (333.15 K) and 3.45 ± 0.23 (343.15 K).

For `CCCCCCCCCC` [decane] + CCCCn1cc[n+](C)c1.O=S(=O)([N-]S(=O)(=O)C(F)(F)C(F)(F)F)C(F)(F)C(F)(F)F, the activity coefficient is, setting by setting: (322.55 K) 37.4 ± 2.6; (342.75 K) 33.3 ± 2.3; (362.65 K) 28 ± 1.9.

Regarding `CCCCCCCCCC` [decane] + CCCCCCCCCCn1cc[n+](CCCCCCCCCC)c1C.O=S(=O)([N-]S(=O)(=O)C(F)(F)F)C(F)(F)F, the activity coefficient (323.1 K) was 3.56 ± 0.24, the activity coefficient (333.15 K) stood at 3.46 ± 0.24 and the activity coefficient (343.15 K) amounted to 3.33 ± 0.23.

For the compound `CCN(CC)CC` [triethylamine] + CCCCn1cc[n+](C)c1.O=S(=O)([N-]S(=O)(=O)C(F)(F)C(F)(F)F)C(F)(F)C(F)(F)F, the activity coefficient by setting is: (322.55 K) 2.73 ± 0.19; (342.75 K) 3.61 ± 0.25; (362.65 K) 3.27 ± 0.22.

`OCC(F)(F)F` [2,2,2-trifluoroethanol] + CCCCCC[n+]1ccn(C)c1.FC(F)(F)C(F)(F)[P-](F)(F)(F)(C(F)(F)C(F)(F)F)C(F)(F)C(F)(F)F: the activity coefficient was determined as 0.987 ± 0.062 (312.8 K), 0.891 ± 0.057 (332.85 K) and 0.728 ± 0.048 (354.65 K).

As for `CO` [methanol] + CCCCn1cc[n+](C)c1.O=S(=O)([N-]S(=O)(=O)C(F)(F)C(F)(F)F)C(F)(F)C(F)(F)F, the activity coefficient (322.55 K) is 1.23 ± 0.079, the activity coefficient (342.75 K) is 0.997 ± 0.062 and the activity coefficient (362.65 K) was 0.942 ± 0.059.

In the case of `CCO` [ethanol] + CCCCCCCCCCn1cc[n+](CCCCCCCCCC)c1C.O=S(=O)([N-]S(=O)(=O)C(F)(F)F)C(F)(F)F, the activity coefficient runs as follows: (323.1 K) 1.27 ± 0.082; (333.15 K) 1.15 ± 0.073; (343.15 K) 1.04 ± 0.065.

In the case of `CCC(C)CC` [3-methylpentane] + CCn1cc[n+](C)c1.CS(=O)(=O)[O-], the activity coefficient reads like this: (312.55 K) 157 ± 11; (322.45 K) 135 ± 9.3; (332.45 K) 115 ± 7.9.

With `CCCCCC` [hexane] + CCCCCC[n+]1ccn(C)c1.FC(F)(F)C(F)(F)[P-](F)(F)(F)(C(F)(F)C(F)(F)F)C(F)(F)C(F)(F)F, the activity coefficient reads like this: (312.8 K) 6.39 ± 0.44; (332.85 K) 5.69 ± 0.39; (354.65 K) 4.41 ± 0.3.

With `CCc1ccccc1` [ethylbenzene] + CCCCCC[n+]1ccn(C)c1.FC(F)(F)C(F)(F)[P-](F)(F)(F)(C(F)(F)C(F)(F)F)C(F)(F)C(F)(F)F, the activity coefficient was determined as 0.956 ± 0.06 (312.8 K), 1.03 ± 0.065 (332.85 K) and 1.04 ± 0.066 (354.65 K).

For `CCCC(C)=O` [pentan-2-one] + CCCCCCCCCCn1cc[n+](CCCCCCCCCC)c1C.O=S(=O)([N-]S(=O)(=O)C(F)(F)F)C(F)(F)F, the activity coefficient is, setting by setting: (323.1 K) 0.397 ± 0.034; (333.15 K) 0.404 ± 0.034; (343.15 K) 0.407 ± 0.034.

As to `OCC(F)(F)F` [2,2,2-trifluoroethanol] + CCCCn1cc[n+](C)c1.O=S(=O)([N-]S(=O)(=O)C(F)(F)C(F)(F)F)C(F)(F)C(F)(F)F, the activity coefficient was 0.457 ± 0.036 (322.55 K), 0.412 ± 0.034 (342.75 K) and 0.373 ± 0.033 (362.65 K).

Take `OCC(F)(F)F` [2,2,2-trifluoroethanol] + CCCCCCCCCCn1cc[n+](CCCCCCCCCC)c1C.O=S(=O)([N-]S(=O)(=O)C(F)(F)F)C(F)(F)F: the activity coefficient came out at 0.399 ± 0.034 (323.1 K), 0.379 ± 0.033 (333.15 K) and 0.355 ± 0.032 (343.15 K).

As for `CO` [methanol] + CCCCCC[n+]1ccn(C)c1.FC(F)(F)C(F)(F)[P-](F)(F)(F)(C(F)(F)C(F)(F)F)C(F)(F)C(F)(F)F, the activity coefficient runs as follows: (312.8 K) 1.57 ± 0.1; (332.85 K) 2.01 ± 0.14; (354.65 K) 1.58 ± 0.1.

On to `CCC(=O)CC` [pentan-3-one] + CCCCn1cc[n+](C)c1.O=S(=O)([N-]S(=O)(=O)C(F)(F)C(F)(F)F)C(F)(F)C(F)(F)F, for which the activity coefficient runs as follows: (322.55 K) 0.624 ± 0.043; (342.75 K) 0.656 ± 0.045; (362.65 K) 0.695 ± 0.047.

For `CCCCCCCCCCCCC` [tridecane] + CCCCn1cc[n+](C)c1.O=S(=O)([N-]S(=O)(=O)C(F)(F)C(F)(F)F)C(F)(F)C(F)(F)F, the activity coefficient by setting is: (322.55 K) 111 ± 7.6; (342.75 K) 78.1 ± 5.3; (363.65 K) 68.9 ± 4.7.

Regarding `Cc1cccc(C)c1` [1,3-dimethylbenzene] + CCCCCCCCCCn1cc[n+](CCCCCCCCCC)c1C.O=S(=O)([N-]S(=O)(=O)C(F)(F)F)C(F)(F)F, the activity coefficient (323.1 K) came to 0.645 ± 0.044, the activity coefficient (333.15 K) came to 0.653 ± 0.045 and the activity coefficient (343.15 K) came out at 0.663 ± 0.045.

Take `CO` [methanol] + CCn1cc[n+](C)c1.CS(=O)(=O)[O-]: the activity coefficient stood at 0.249 ± 0.03 (312.55 K), 0.254 ± 0.03 (322.45 K) and 0.264 ± 0.03 (332.45 K).

As for `Cc1ccc(C)cc1` [1,4-dimethylbenzene] + CCCCCC[n+]1ccn(C)c1.FC(F)(F)C(F)(F)[P-](F)(F)(F)(C(F)(F)C(F)(F)F)C(F)(F)C(F)(F)F, the activity coefficient by setting is: (312.8 K) 0.992 ± 0.062; (332.85 K) 1.03 ± 0.065; (354.65 K) 1 ± 0.063.

With `CCCCCCC` [heptane] + CCCCCC[n+]1ccn(C)c1.FC(F)(F)C(F)(F)[P-](F)(F)(F)(C(F)(F)C(F)(F)F)C(F)(F)C(F)(F)F, the activity coefficient was 8.84 ± 0.6 (312.8 K), 7.73 ± 0.53 (332.85 K) and 6.62 ± 0.45 (354.65 K).

On to `ClCCl` [dichloromethane] + CCn1cc[n+](C)c1.CS(=O)(=O)[O-], for which the activity coefficient by setting is: (312.55 K) 0.471 ± 0.037; (322.45 K) 0.531 ± 0.039; (332.45 K) 1.3 ± 0.084.

As for `C=CCCCC` [hex-1-ene] + CCCCn1cc[n+](C)c1.O=S(=O)([N-]S(=O)(=O)C(F)(F)C(F)(F)F)C(F)(F)C(F)(F)F, the activity coefficient stood at 6.07 ± 0.41 (322.55 K), 5.55 ± 0.38 (342.75 K) and 5.24 ± 0.36 (362.65 K).

Regarding `CCCCO` [butan-1-ol] + CCCCCC[n+]1ccn(C)c1.FC(F)(F)C(F)(F)[P-](F)(F)(F)(C(F)(F)C(F)(F)F)C(F)(F)C(F)(F)F, the activity coefficient came out at 4.9 ± 0.33 (312.8 K), 2.32 ± 0.16 (332.85 K) and 1.76 ± 0.12 (354.65 K).

As for `CCCCCC` [hexane] + CCn1cc[n+](C)c1.CS(=O)(=O)[O-], the activity coefficient worked out at 207 ± 14 (312.55 K), 190 ± 13 (322.45 K) and 152 ± 10 (332.45 K).

On to `Cc1ccccc1` [toluene] + CCCCCC[n+]1ccn(C)c1.FC(F)(F)C(F)(F)[P-](F)(F)(F)(C(F)(F)C(F)(F)F)C(F)(F)C(F)(F)F, for which the activity coefficient reads like this: (312.8 K) 0.674 ± 0.046; (332.85 K) 0.727 ± 0.048; (354.65 K) 0.753 ± 0.05.

For the compound `Cc1ccccc1C` [1,2-dimethylbenzene] + CCCCn1cc[n+](C)c1.O=S(=O)([N-]S(=O)(=O)C(F)(F)C(F)(F)F)C(F)(F)C(F)(F)F, the activity coefficient stood at 1.87 ± 0.13 (322.55 K), 1.89 ± 0.13 (342.75 K) and 1.97 ± 0.13 (362.65 K).

With `Cc1ccccc1` [toluene] + CCCCCCCCCCn1cc[n+](CCCCCCCCCC)c1C.O=S(=O)([N-]S(=O)(=O)C(F)(F)F)C(F)(F)F, the activity coefficient (323.1 K) is 0.512 ± 0.038, the activity coefficient (333.15 K) is 0.52 ± 0.039 and the activity coefficient (343.15 K) amounted to 0.527 ± 0.039.

Values taken from the NIST ThermoML archive (doi:10.1021/je200195q).
